Entries after “also recorded” stand apart in the source; their conditions may differ.
Tests used:
[1] = system: Drosophila w1118 control fly line; assay: Drosophila HoPan toxicity and CoA rescue experiment (eclosion); format: in vivo; conditions: CoA added to the food of the larvae
From the text: Drosophila HoPan Toxicity and CoA Rescue Experiment: One week old w1118 flies (in the ratio 10 females and 5 males) were kept in vials containing standard fly food with or without HoPan and CoA at indicated concentrations. The flies were allowed to lay eggs for 2 days, after which the adults were discarded. The resulting offspring were allowed to develop. The numbers of flies which eclosed were counted to evaluate HoPan toxicity and CoA rescue efficiency.

[2] = Conversion of CoA in mouse serum by HPLC; format: in vitro ADME
From the text: The conversion of CoA to 4′-phosphopantetheine was further investigated in mouse serum and in human serum.

[3] = system: homozygous dPPCDC mutants and dPPCDC RNAi expressing flies; assay: Drosophila dPPCDC mutant and dPPCDC RNAi flies, development, lifespan and fertility with CoA or Vitamin B5; format: in vivo, Drosophila melanogaster
Description: Drosophila Maintenance and Crosses: Drosophila melanogaster stocks/crosses were raised on standard cornmeal agar fly food (containing water, agar 17 g/L, sugar 54 g/L, yeast extract 26 g/L and nipagin 1.3 g/L) at 25° C. The stocks were either obtained from the Bloomington Stock Centre (Indiana University, USA), VDRC (Vienna Drosophila RNAi Collection, Vienna, Austria) or from the Exelixis Collection (Harvard Medical School) and rebalanced to generate eGFP-positive balancers. The stocks used were: w1118; dPANK/fbl1 hypomorph5,6; dPANK/fblnull (y[1] w[*]; Mi{y[+mDint2]=MIC}fbl[MI04001]/TM3, Sb[1] Ser[1], Bloomington 36941); dPPCDC mutant (w[1118], PBac{w[+mC]=WH}Ppcdc[f00839]/CyO, Bloomington 18377); UAS-dPPCDCRNAi line (VDRC 104495); dCOASY mutant (PBac{RB}Ppat-Dpck[e00492], Exelixis). The UAS-RNAi constructs were expressed ubiquitously using the Actin-Gal4 drivers (y[1] w[*]; P{w[+mC]=Act5C-GAL4}25FO1/CyO, y[+], Bloomington 4414). […]
Drosophila Life Span: One-day old adults of Drosophila homozygous mutants or RNAi-constructs expressing lines, were collected with appropriate controls and were kept on standard fly food at 25° C. with or without CoA or Vitamin B5 (Sigma) at necessary concentration (50 ul added on top of the fly food and dried). The flies were counted every 12-24 hrs and flipped to new fly food vials with or without CoA or Vitamin B5.
Drosophila Ovary Rescue Experiment: UAS-dPPCDC RNAi constructs were ubiquitously expressed under the control of Actin-Gal4. […] The vials (or plates) from the crosses (with eggs that were being laid during the 4 day period of CoA rescue) were kept for another 10 days and offspring numbers were counted after eclosion.
Drosophila Ovary dissection and staining: Drosophila ovaries were collected in cold PBS and fixed in 4% formaldehyde (from methanol-free 16% Formaldehyde Solution, Thermo Scientific) for 45 min at RT. […] Finally the samples were mounted in 80% glycerol and analyzed on a Zeiss-LSM780 NLO confocal microscope with Zeiss Zen software. […]

[4] = system: COASY down-regulated HEK293 cells; assay: Knock-down of COASY by siRNA in HEK293 cells with CoA; format: cell-based, human; conditions: CoA added to the medium
Description: Knock-down of COASY by siRNA in mammalian HEK293 cells: HEK293 were maintained as described above. HEK293 were transfected with 200 nM COASY siRNA (GE Healthcare human COASY 80347 smartpool Cat no: M-006751-00-0010) or non-targeting siRNA (GE Healthcare Cat no: D-001206-13-20) using lipofectamine 2000 (Invitrogen) 4 h after transfection CoA was added in a final concentration of 25 uM. Cells were cultured for 3 days and then harvested for HPLC analysis of total CoA and PPanSH levels and Western blot (histone acetylation) as described below.
Western blot analysis and Antibodies: For Western blot analysis, cells were collected and washed with phosphate buffer saline (PBS), followed by centrifugation. The cells were lysed and sonicated in 1X Laemmli Sample Buffer and boiled for 5 min with 5% β-mercaptoethanol (Sigma). Protein content was determined using DC protein assay (BioRad). Equal amounts of protein were loaded on a 10 or 12.5% SDS-PAGE gel, transferred onto PVDF membranes and blocked with 5% milk in PBS/0.1% Tween, followed by overnight incubation with primary antibodies. […] Appropriate HRP-conjugated secondary antibodies (Amersham) were used and detection was performed using enhanced chemi-luminescence (Pierce cat nog: 32106) and Amersham hyperfilm (GE Healthcare). Band intensities were quantified with Image-studio software.

[5] = liver extracts, −20° C., after a week; cited from earlier work

CC(C)(COP(=O)(O)OP(=O)(O)OC[C@H]1O[C@@H](n2cnc3c(N)ncnc32)[C@H](O)[C@@H]1OP(=O)(O)O)[C@@H](O)C(=O)NCCC(=O)NCCS [CoA, Coenzyme A]
rescue of HoPan-induced phenotype (larval lethality, eclosion rate) [1]: fully rescued | conversion of CoA in serum [2]: converted to 4′-phosphopantetheine | egg production and fertility of females ([3]; dPPCDC RNAi expressing females): improved egg-production significantly; also recorded: produced a significant number of eggs; also recorded: produced viable eggs that resulted in offspring | lifespan with CoA ([3]; dPPCDC RNAi expressing flies, CoA added to the food, from 10 days without): 30 days | development with CoA ([3]; homozygous dPPCDC mutants, CoA added to the food): extended larval development to late pupal stage | rescue of COASY RNAi-induced decrease in intracellular CoA levels [4]: neither rescued | CoA degrades to [5]: 50%
